Assay results: patent publication US10028960B2, “Pyrimidine compounds as JAK kinase inhibitors” (THERAVANCE BIOPHARMA R&D IP, LLC, priority 2016, dated 2018)
Like-named read-outs stand apart in the source and are kept apart here.

How the values were obtained:
[1] = tested on: IL-4 stimulated STAT6 phosphorylation in CD3+ T cells in human PBMCs; test: Cellular JAK potency assay: inhibition of IL-4 stimulated pSTAT6 in CD3+ T cells; assay type: cell-based; settings: T-cell
Protocol: The potency of test compounds for inhibition of interleukin-4 (IL-4) stimulated STAT6 phosphorylation was measured in CD3-positive (CD3+) T cells in human peripheral blood mononuclear cells (PBMCs) isolated from human whole blood (Stanford Blood Center) using flow cytometry. Because IL-4 signals through JAK, this assay provides a measure of JAK cellular potency.
CD3+ T cells were identified using a […] (PE) conjugated anti-CD3 antibody (Clone UCHT1, BD Biosciences), while an Alexa Fluor 647 conjugated anti-pSTAT6 antibody (pY641, Clone 18/P, BD Biosciences) was used to detect STAT6 phosphorylation.
Human peripheral blood mononuclear cells (PBMC) were isolated from human whole blood of healthy donors using a ficoll gradient. […] After incubation, cells were washed twice in FACS buffer before being analyzed using a LSRII flow cytometer (BD Biosciences).
(§1) To determine the inhibitory potency of test compounds in response to IL-4, the median fluorescent intensity (MFI) of pSTAT6 was measured in CD3+ T cells. IC50 values were determined from analysis of the inhibition curves of MFI vs compound concentration. Data are expressed as pIC50 (negative decadic logarithm IC50) values (mean±standard deviation).

[2] = tested on: IFNγ stimulated STAT1 phosphorylation in CD14+ monocytes; test: Cellular JAK potency assay: inhibition of IFNγ-induced pSTAT1; assay type: cell-based; settings: Homo sapiens, Monocyte
Protocol: The potency of test compounds for inhibition of interferon gamma (IFNγ) stimulated STAT1 phosphorylation was measured in CD14-positive (CD14+) monocytes derived from human whole blood (Stanford Blood Center) using flow cytometry. Because IFNγ signals through JAK, this assay provides a measure of JAK cellular potency.
Monocytes were identified using a fluorescein isothiocyanate (FITC) conjugated anti-CD14 antibody (Clone RM052, Beckman Coulter), and an Alexa Fluor 647 conjugated anti-pSTAT1 antibody (pY701, Clone 4a, BD Biosciences) was used to detect STAT1 phosphorylation.
Human peripheral blood mononuclear cells (PBMC) were isolated from human whole blood of healthy donors using a ficoll gradient. […] Cells were washed twice with FACS buffer, and then resuspended in 1:10 anti-pSTAT1 Alexa Fluor 647:FACS buffer (100 μL) for 30 min at RT in the dark, washed twice in FACS buffer, and analyzed using a LSRII flow cytometer (BD Biosciences).
as §1, with “compounds,” for “compounds in response to IL-4,”, “pSTAT1” for “pSTAT6”, “CD14+ monocytes.” for “CD3+ T cells.”

[3] = in vivo
Excerpt: The objective of this assay was to determine the epidermal, dermal and plasma pharmacokinetics of a test compound following a 24 hr exposure to intact mouse or mini-pig skin.
Twenty-four hours prior to dosing the hair was shaved from the back of 25 g male Balb/c mice exposing an area at of least 6 cm^2 (about 10% of body surface) and, in a separate experiment, of 10 kg Gottingen mini-pigs exposing an area of at least 450 cm^2 (about 10% of body surface). […] The skin was covered with an adhesive cover to prevent loss of compound to the cage or bedding.
Following 24 h exposure, the backs were gently washed with soap and water to remove non-absorbed drug and patted dry. Immediately following this washing, blood was drawn by cardiac puncture from the mice and via venipuncture from the mini-pigs. The outer skin (stratum corneum) was then removed by adhesive tape stripping. Upon exposure of the epidermis a 0.5 cm punch biopsy was taken. The epidermis and dermis were quickly separated, weighed and snap frozen.

Question: For `COc1cc(Nc2cc(CO)[nH]n2)nc(N(C)[C@@H]2C[C@H]3CCC[C@@H](C2)N3S(=O)(=O)N2CC(C#N)C2)n1` [Example 2, 1-(((1R,3s,5S)-3-((4-((5-(Hydroxymethyl)-1H-pyrazol-3-yl)amino)-6-methoxypyrimidin-2-yl)(methyl)amino)-9-azabicyclo[3.3.1]nonan-9-yl)sulfonyl)azetidine-3-carbonitrile], which IC50 ([1]; IL-4 stimulated pSTAT6, CD3+ T cells, read-out: pIC50 value (converted)) is on record?
Answer: ~0.0501 µM

Question: And the IC50 ([1]; cellular assay, Assay 4, read-out: IC50 for inhibition of IL-4)?
Answer: ≤ 0.05 µM

Question: And the IC50 ([2]; IFNγ-induced pSTAT1, CD14+ monocytes, read-out: pIC50 value (converted))?
Answer: ~0.0251 µM

Question: What about the IC50 ([2]; cellular assay, Assay 5, read-out: IC50 for inhibition of IFNγ) of the same compound?
Answer: ≤ 0.05 µM

Question: What about the “duration of sustained dermal levels” value ([3]; Gottingen, minipig) of the same compound?
Answer: at least 7 days

Question: And the “duration of sustained dermal levels” value ([3]; male, Balb/c, mouse)?
Answer: at least 2 days
